We go through 44 molecules from ChEMBL document CHEMBL5360560, “Anti-Vibrio potential of natural products from marine microorganisms” (Eur J Med Chem, 2023).

Type in all cases: functional
Experiment [1] has as its system Vibrio parahaemolyticus. The experiment in a line: Antimicrobial activity against Vibrio parahaemolyticus assessed as bacterial growth inhibition by broth dilution assay. Background: Dilution methods test growth across graded concentrations, often in twofold steps.
The test system of experiment [2] is Vibrio anguillarum. The experiment in a line: Antimicrobial activity against Vibrio anguillarum assessed as bacterial growth inhibition by broth dilution assay.
A further experiment has as its system Vibrio alginolyticus. The experiment in a line: Antimicrobial activity against Vibrio alginolyticus assessed as bacterial growth inhibition by broth dilution assay.
The subject of experiment [3] is Vibrio harveyi. As to the kind of experiment: Antimicrobial activity against Vibrio harveyi assessed as bacterial growth inhibition.
Experiment [4] deals with Vibrio parahaemolyticus. As to the kind of experiment: Antimicrobial activity against Vibrio parahaemolyticus assessed as bacterial growth inhibition.
Experiment [5] concerns Vibrio anguillarum. The experiment in a line: Antibacterial activity against Vibrio anguillarum assessed as bacterial growth inhibition.
Experiment [6] deals with Vibrio harveyi. As to the kind of experiment: Antibacterial activity against Vibrio harveyi assessed as bacterial growth inhibition.
Experiment [7] relates to Vibrio harveyi. The experiment in a line: Antimicrobial activity against Vibrio harveyi assessed as bacterial growth inhibition by microplate reader assay.
In experiment [8] the test system is Vibrio anguillarum. The experiment in a line: Antimicrobial activity against Vibrio anguillarum assessed as bacterial growth inhibition by microplate reader assay.
Experiment [9] has as its system Vibrio parahaemolyticus. The experiment in a line: Antimicrobial activity against Vibrio parahaemolyticus assessed as zone of inhibition.

The structures appear in SMILES notation. Values after ≈ are worked out from the molar mass of the structure shown.

As a reminder, the MIC is the lowest concentration that inhibits growth of the organism. Turning to `C/C(=C\[C@H]1OC(=O)[C@@H](C)[C@@H]1C)[C@H]1CCC2=C3C=CC4=CC(=O)CC[C@]4(C)[C@H]3CC[C@@]21C`, the MIC in the experiment with Vibrio parahaemolyticus [1], in the experiment with Vibrio anguillarum [2] and in the experiment on Vibrio alginolyticus was 25 mg/L each time.

Turning to `C/C(=C\[C@H]1OC(=O)[C@H](C)[C@@H]1C)[C@H]1CCC2=C3C=CC4=CC(=O)CC[C@]4(C)[C@H]3CC[C@@]21C`, the MIC in the experiment with Vibrio parahaemolyticus [1], with Vibrio anguillarum [2] and in the experiment with Vibrio alginolyticus was 25 mg/L each time.

Turning to `O=C1NCc2nc3ccccc3c(=O)n2C1Cc1c[nH]c2ccccc12` (stereo unspecified), the MIC in the experiment on Vibrio harveyi [3] amounted to 16 mg/L.

Take `COc1ccc(O)c(-c2cc(OC)ccc2O)c1`: in the experiment on Vibrio parahaemolyticus [1], the MIC was 10 mg/L.

With `CC[C@@H](C)[C@@H](O)/C=C/C=C/CC[C@@H](C)C[C@H](C)[C@H]1C[C@@H](O)[C@H](C)CC/C=C/[C@H](C)C/C=C(\C)[C@H](O)CCC[C@@H](OC)[C@H](C)/C=C/C(=O)O1`, in the experiment on Vibrio parahaemolyticus [4], the MIC was 1.56 mg/L.

Take `O=C1N[C@@H]2c3nc4ccccc4c(=O)n3[C@H]1CC21C(=O)Nc2ccccc21` (stereo partly specified): in the experiment with Vibrio harveyi [3], the MIC came to 16 mg/L.

`C[C@@H]1C[C@H](O)CC(=O)C/C=C/[C@@H](O)CC(=O)O1`: in the experiment on Vibrio parahaemolyticus [1], the minimum inhibitory concentration (MIC) worked out at 25 µM.

For `CC[C@@H](C)[C@@H](O)/C=C/C(C)=C/CC[C@@H](C)C[C@H](C)[C@H]1C[C@@H](O)[C@H](C)CC/C=C/[C@H](C)C/C=C(\C)[C@H](O)CCC[C@@H](O)[C@H](C)/C=C/C(=O)O1`, in the experiment with Vibrio parahaemolyticus [4], the MIC was 1.56 mg/L.

Take `CO[C@@H]1CC(=O)/C=C/C[C@@H](C)OC(=O)C[C@H](O)C1`: the MIC in the experiment on Vibrio parahaemolyticus [1] turned out to be 25 µM.

As for `C[C@H](Cl)[C@@H](O)C1=C[C@H](O)[C@@H](C)OC1=O` [CHLOROHYDROASPYRONE B], the MIC in the experiment on Vibrio anguillarum [5] was 0.5 mg/L; in the experiment with Vibrio harveyi [6] it was 32 mg/L (≈ 145 µM).

In the case of `COC(=O)CC[C@H]1C(=O)N/C(=C\C(C)C)c2nc3ccccc3c(=O)n21`, the MIC with Vibrio harveyi [7] was found to be 8 mg/L.

Turning to `COc1cc(O)c2c(c1)C(=O)C1=C(C2=O)[C@H](O)[C@@H](O)[C@@](C)(O)C1`, in the experiment on Vibrio parahaemolyticus [4], the minimal inhibitory concentration (MIC) was determined as 25 µM.

Regarding `C[C@@H](O)CCCCC[C@H](C)[C@@H]1C=CC(=O)O1`, in the experiment with Vibrio parahaemolyticus [1], the MIC came out at 25 µM.

Regarding `C=C(C)[C@H]1COc2c(C)cc3oc4c(C[C@H](O)C(C)(C)O)ccc(O)c4c(=O)c3c2[C@@H]1O` [TAJIXANTHONEHYDRATE], the MIC in the experiment on Vibrio parahaemolyticus [1], in the experiment on Vibrio anguillarum [2] and in the experiment on Vibrio alginolyticus was 1.56 µM each time.

On to `CC(C)CCC[C@@](C)(O)c1ccc(C(=O)O)cc1O`, for which the MIC was 5 µM in the experiment on Vibrio parahaemolyticus [4] and 10 µM in the experiment with Vibrio anguillarum [5].

`CC[C@H](C)C[C@H](C)/C=C(\C)c1cc(=O)cc(O)o1`: the MIC with Vibrio parahaemolyticus [1] stood at 6.25 mg/L.

Regarding `CCCCc1cc(O)c2ccccc2n1`, in the experiment with Vibrio harveyi [6], the MIC was 0.5 mg/L (≈ 2.48 µM).

As to `COc1cc(O)c2c(c1)C(=O)C1=C(C[C@@H](O)[C@@](C)(O)C1)C2=O` [ALTERSOLANOL B], the MIC in the experiment with Vibrio parahaemolyticus [4] stood at 25 µM; in the experiment with Vibrio parahaemolyticus [1], 2.5 mg/L; in the experiment with Vibrio anguillarum [2], 5 mg/L.

As for `CC(=O)O[C@H]1CC[C@@]2(C)[C@@H](CC[C@H]3Cc4c([nH]c5ccccc45)[C@@]32C)[C@]1(C)CC[C@@H](O)C(C)(C)O`, the MIC with Vibrio parahaemolyticus [1], with Vibrio anguillarum [2] and in the experiment with Vibrio alginolyticus was 12.5 µM each time.

With `CC(O)C(Cl)C1=C[C@H]([C@H](C)O)OC1=O` (stereo partly specified), the results for the minimal inhibitory concentration (MIC) in the experiment on Vibrio anguillarum [5] and in the experiment with Vibrio harveyi [6] were 0.5 mg/L and 32 mg/L (≈ 145 µM), respectively.

As for `CC(C)/C=C1/NC(=O)[C@H](CCC(N)=O)n2c1nc1ccccc1c2=O`, the minimum inhibitory concentration (MIC) with Vibrio harveyi [7] came out at 8 mg/L.

On to `C=C(C)[C@H]1COc2c(C)cc3oc4c([C@@H](OC)[C@@H](O)C(=C)C)ccc(O)c4c(=O)c3c2[C@@H]1O`, for which the MIC in the experiment with Vibrio parahaemolyticus [1], with Vibrio anguillarum [2] and in the experiment on Vibrio alginolyticus was 1.56 µM each time.

In the case of `C=C(C)[C@H]1COc2c(C)cc3oc4c([C@@H](OC)[C@@H](O)C(=C)C)ccc(O)c4c(=O)c3c2[C@@H]1OC(C)=O`, the MIC with Vibrio parahaemolyticus [1], with Vibrio anguillarum [2] and with Vibrio alginolyticus was 1.56 µM throughout.

In the case of `COc1c(Cl)c(O)cc2c1C(=O)c1c(O)cc(COC(C)=O)cc1C2=O`, in the experiment with Vibrio parahaemolyticus [1], the MIC was 10 µM.

Regarding `C[C@H](O)[C@H](Cl)C1=C[C@H](O)[C@@H](C)OC1=O` [CHLOROHYDROASPYRONE A], the values for the MIC in the experiment with Vibrio anguillarum [5] and with Vibrio harveyi [6] were 0.5 mg/L and 32 mg/L (≈ 145 µM), respectively.

Turning to `COc1ccc2c3c4n(c2c1)C(C=C(C)C)OOC(C)(C)C[C@@H]4N1C(=O)[C@@H]2CCCN2C(=O)[C@]1(O)[C@H]3O` (stereo partly specified), in the experiment with Vibrio harveyi [3], the MIC amounted to 16 mg/L.

With `C[C@H]1C[C@H](O)[C@H]2[C@@H](C=C[C@@](C)(O)[C@]2(C)C(=O)CCO)C1`, the MIC with Vibrio harveyi [7] and with Vibrio anguillarum [8] was 4 mg/L in each case.

On to `COc1cc(O)c2c(c1)C(=O)[C@@H]1C[C@](C)(O)[C@H](O)[C@H](O)[C@]1(O)C2=O`, for which, in the experiment on Vibrio parahaemolyticus [4], the MIC was 50 µM.

Regarding `CCCCCc1cc(O)c2ccccc2n1`, in the experiment with Vibrio harveyi [6], the MIC was 4 mg/L (≈ 18.6 µM).

Consider `C=C(C)[C@H]1COc2c(C)cc3oc4c([C@@H](OC)[C@@H](O)C(C)(C)O)ccc(O)c4c(=O)c3c2[C@@H]1OC(C)=O`, for which the MIC with Vibrio parahaemolyticus [1], with Vibrio anguillarum [2] and in the experiment on Vibrio alginolyticus was 1.56 µM throughout.

Regarding `C[C@H](O)/C=C1/C(=O)O[C@H]([C@@H](C)O)[C@@H]1O`, the MIC turned out to be 0.5 mg/L in the experiment on Vibrio anguillarum [5] and 32 mg/L (≈ 158 µM) in the experiment on Vibrio harveyi [6].

Consider `C=C(C)[C@@H]1COc2c(C)cc3oc4c(C[C@H](OC(C)=O)C(C)(C)O)ccc(O)c4c(=O)c3c2[C@@H]1O`, for which the MIC in the experiment on Vibrio parahaemolyticus [1], with Vibrio anguillarum [2] and in the experiment on Vibrio alginolyticus was 1.56 µM throughout.

Regarding `CC(C)(O)[C@H](O)CC[C@]1(C)[C@@H](O)CC[C@@]2(C)[C@H]1CC[C@H]1Cc3c([nH]c4ccccc34)[C@@]12C`, the values for the MIC in the experiment on Vibrio parahaemolyticus [1], in the experiment with Vibrio anguillarum [2] and in the experiment with Vibrio alginolyticus were 6.3 µM, 3.1 µM and 3.1 µM, respectively.

Regarding `Nc1ccccc1C(=O)C[C@H]1NC(=O)[C@H]2CCCN2C1=O`, the MIC with Vibrio harveyi [3] is 50 µM.

For `C[C@@H]1CC[C@@H]2[C@H](C=C[C@](C)(O)[C@@]2(C)C(=O)CCO)C1`, the MIC with Vibrio harveyi [7] and in the experiment with Vibrio anguillarum [8] was 4 mg/L throughout.

`CC[C@@H](C)[C@H](/C=C/C(=C/CC[C@@H](C)C[C@H](C)[C@H]1C[C@@H](O)[C@H](C)CC/C=C/[C@H](C)C/C=C(\C)[C@H](O)CCC[C@@H](O)[C@H](C)/C=C/C(=O)O1)CO)OC(C)=O`: the MIC in the experiment with Vibrio parahaemolyticus [4] is 1.56 mg/L.

Regarding `C=C(C)C1(O)OC(=O)C=C1OC` (stereo unspecified) [PENICILLIC ACID], the figures for the MIC with Vibrio anguillarum [5] and with Vibrio harveyi [6] were 0.5 mg/L and 32 mg/L (≈ 188 µM), respectively.

As to `CC(C)/C=C1\NC(=O)[C@H](CCC(N)=O)n2c1nc1ccccc1c2=O` [AURANTIOMIDE C], in the experiment on Vibrio harveyi [7], the MIC stood at 8 mg/L.

Turning to `CC[C@H]1/C=C/CC[C@@H](C)[C@H](O)C[C@H]([C@@H](CO)C[C@H](C)CC[C@H](O)[C@H](C)/C=C/[C@H](O)C(C)C)OC(=O)/C=C/[C@](C)(O)[C@H](O)CCC[C@@H](O)[C@H](C)CC1`, the MIC with Vibrio parahaemolyticus [4] is 1.56 mg/L.

For `C[C@H]1CC[C@H]2[C@@H](C=C[C@H](C)[C@]2(C)C(=O)CCO)[C@@H]1O`, the MIC with Vibrio harveyi [7] and with Vibrio anguillarum [8] was 4 mg/L in each case.

For the molecule `C[C@@H]1Cc2ccc(O)c(O)c2C(=O)O1`, the minimum inhibitory concentration (MIC) with Vibrio anguillarum [5] is 0.5 mg/L; with Vibrio harveyi [6] it was 32 mg/L (≈ 165 µM).

For `CO[C@@H]1CC(=O)C/C=C/[C@@H](O)CC(=O)O[C@H](C)C1`, in the experiment on Vibrio parahaemolyticus [1], the MIC was 12.5 µM.

For `C[C@H]1[C@H]([C@@]2(C)CCC([C@](C)(O)CO)O2)CC[C@@]1(C)O` (stereo partly specified), the “inhibition zone (IZ)” value in the experiment with Vibrio parahaemolyticus [9] is 6.2 mm.

In the case of `C=C(C)[C@H]1COc2c(C)cc3oc4c(C[C@H](OC(C)=O)C(C)(C)O)ccc(O)c4c(=O)c3c2[C@@H]1O`, the MIC in the experiment with Vibrio parahaemolyticus [1], in the experiment on Vibrio anguillarum [2] and in the experiment with Vibrio alginolyticus was 1.56 µM in each case.
